Patent US20230303544A1, “LMO2 PROTEIN INHIBITORS” (UNIVERSITY OF OXFORD, priority 2020, published 2023)
Values joined by “and” are separate entries in the source; they are usually repeats but may differ in a detail not shown here. Identical values can stand only once.

How the values were obtained:
[1] = biological target: T1, LMO2-iDAb LMO2dm3 interaction (Homo sapiens, UniProt P25791); assay: LMO2-iDAb LMO2dm3 BRET assay; assay type: cell-based; details: 22 h; for inhibition of LMO2-iDAb LMO2dm3 interaction (in words): BRET competition, Abd concentration 1 (or 5), 10, 20 μM; for IC50: BRET dose response, HEK293T cells, 0.01-50 μM
T1 construct: LMO2 cDNA was cloned into the pEF-RLuc8-MCS and pEF-MCS-RLuc8 plasmids; expressed in transfected cells; host or cells: HEK293T
T1 sequence (P25791 1-158): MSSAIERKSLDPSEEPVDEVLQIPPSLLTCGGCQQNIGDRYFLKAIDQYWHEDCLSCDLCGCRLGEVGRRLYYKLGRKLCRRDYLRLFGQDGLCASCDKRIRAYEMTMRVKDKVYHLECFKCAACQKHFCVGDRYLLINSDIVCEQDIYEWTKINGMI
Experimental: For all BRET experiments (titration curves and competition assays) 650,000 HEK293T were seeded in each well of a 6 well plates. After 24 hours at 37° C., cells were transfected with a total of 1.6 μg of DNA mix, containing the donor+acceptor±competitor plasmids, using Lipofectamine 2000 transfection reagent (Thermo-Fisher). In dose response competition experiments, competitors were transfected with the following amount of DNA: 0.1; 0.5 and 1 μg. In single dose competition experiments, competitors were transfected with […] of DNA. Cells were detached 24 hours later, washed with PBS and seeded in a white 96-well plate (clear bottom, PerkinElmer, Cat #6005181) in OptiMEM no phenol red medium complemented with 4% FBS and cells were incubated for an additional 20-24 hours at 37° C. before the BRET assay reading. A detailed BRET protocol is provided by Bery and Rabbitts, (2019).
Compounds were prepared in 100% DMSO at 10 mM. For BRET competition assays, cells were treated with the indicated compounds at concentration of 1 (or 5), 10 and 20 μM for 22 h. For BRET-based dose response experiments, cells were treated with compounds at concentration of 0.01, 0.1, 1, 4, 10, 25 and 50 μM for 22 h. The compounds were diluted in the BRET medium: OptiMEM no phenol red (Life Technologies) supplemented with 4% FBS and with a final concentration of 0.2% DMSO.
BRET2 signal was determined immediately after injection of coelenterazine 400a substrate (10 μM final) to cells (Cayman Chemicals), using a CLARIOstar instrument (BMG Labtech) with a luminescence module. Total GFP^2 fluorescence was detected with excitation and emission peaks set at 405 nm and 515 nm respectively. Total RLuc8 luminescence was measured with the Luminescence 400-700 nm-wavelength filter.
The BRET signal or BRET ratio corresponds to the light emitted by the GFP^2 acceptor constructs (515 nm±30) upon addition of coelenterazine 400a divided by the light emitted by the RLuc8 donor constructs (410 nm±80). The background signal is subtracted from that BRET ratio using the donor-only negative control where only the RLuc8 fusion plasmid is transfected into the cells. The normalized BRET ratio is the BRET ratio normalized to a negative control (iDAb control or DMSO control) during a competition assay. Total GFP^2 and RLuc8 signals were used to control the protein expression from each plasmid.

LMO2-ΔLID = biological target: T2, LMO2-ΔLID (Homo sapiens, UniProt P25791); assay: WaterLOGSY NMR binding to LMO2-ΔLID; details: RT
T2 construct: UniProt P25791; residues 26-156; hexa-histidine tag (N, cleaved yes); SUMO (N, cleaved yes); made in house; host or cells: E. coli Lemo21(DE3)
T2 sequence (P25791 with tags, fused parts or gaps): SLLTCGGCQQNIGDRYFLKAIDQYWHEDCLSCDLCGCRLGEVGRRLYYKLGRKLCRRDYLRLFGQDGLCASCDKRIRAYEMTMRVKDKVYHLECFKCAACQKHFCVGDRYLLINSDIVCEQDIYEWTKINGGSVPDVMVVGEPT
Experimental: (§1) WaterLOGSY NMR method was used to measure LMO2 ligand interaction (Bataille et al., 2020). WaterLOGSY experiments were conducted at a ^1H frequency of 600 MHz using a Bruker Avance spectrometer equipped with a BBI probe. All experiments were conducted at RT. 3 mm diameter NMR tubes with a sample volume of 200 μL were used for all experiments. For LMO2-LID, solutions were buffered using a 10 mM NaPO4, 250 mM NaCl solution. For LMO2-ΔLID, solutions were buffered using a 10 mM NaPO4, 50 mM NaCl solution. The sample preparation for measuring ligand binding with LMO2-LID is exemplified as follows; the compound (10 μL of a 10 mM solution in DMSO-d6) was added to an Eppendorf tube before sequential addition of the appropriate buffer (90 μL), D2O (20 μL), and the protein (80 μL, 25 μM). The resulting solution was vortexed to mix and transferred to a 3 mm NMR tube prior to the NMR analysis. The sample preparation for measuring ligand binding with LMO2-ΔLID is exemplified as follows; the compound (10 μL of a 10 mM solution in DMSO-d6) was added to an Eppendorf tube before sequential addition of the appropriate buffer (162 μL), D2O (20 μL), and the protein (8 μL, 250 μM). The resulting solution was vortexed to mix and transferred to a 3 mm NMR tube prior to the NMR analysis. […]

LMO2-LID = biological target: T3, LMO2-LID (Homo sapiens, UniProt P25791); assay: WaterLOGSY NMR binding to LMO2-LID; details: RT
T3 construct: made in house; host or cells: E. coli BL21(DE3)-Rosetta2 pLysS
T3 sequence (P25791 26-156 limits assumed): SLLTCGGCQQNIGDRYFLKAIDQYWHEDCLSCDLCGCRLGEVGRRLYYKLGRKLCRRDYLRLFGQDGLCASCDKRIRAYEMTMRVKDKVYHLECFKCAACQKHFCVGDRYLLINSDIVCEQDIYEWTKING
T3 sequence (Q86U70 336-375 partner limits assumed): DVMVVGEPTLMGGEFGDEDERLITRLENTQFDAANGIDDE
Experimental: as §1

[2] = tested on: Caco-2 human colon carcinoma cell line; assay: Caco-2 permeability assay; assay type: in vitro ADME; details: 10 μM, 2 hours, 37° C.
Experimental: Caco-2 apparent permeability (Papp) was determined in the Caco-2 human colon carcinoma cell line as described (Bavetsias et al., 2016). Cells were maintained (DMEM with 10% fetal bovine serum, penicillin, and streptomycin) in a humidified atmosphere with 5% CO2/95% air for 10 days. Cells were plated out onto a cell culture assembly plate (Millipore, UK), and monolayer confluency was checked using a TEER electrode prior to the assay. Media was washed off and replaced with HBSS buffer (pH7.4) containing compound (10 μM, 1% DMSO) in the appropriate apical and basal donor wells. HBSS buffer alone was placed in acceptor wells. In particular instances a specific P-gp inhibitor, LY335979 (5 μM), was added to the HBSS. The Caco-2 plate was incubated for 2 hours at 37° C. Samples from the apical and basolateral chambers were analysed using a Waters (Milford, MA, US) TQ-S LC-MS/MS system. The cell permeability properties of Abd-L compounds was compared to low (nadolol) and high (antipyrine) permeability compounds and a compound with high export (indinavir).
Apparent permeability (Papp) was determined as follows: […]

[3] = Parallel artificial membrane permeability assay (PAMPA); assay type: in vitro ADME; details: 10 μM donor, pH 5, 6.5 and 7.4, 16 hours, 30° C.
Experimental: The parallel artificial membrane permeability assay (PAMPA) was used to determine compound permeability by passive diffusion. The assay used an artificial membrane consisting of 2% phosphatidyl choline in dodecane (Sigma Aldrich, Dorset, UK). The donor plate was a MultiScreen-IP Plate with 0.45 μm hydrophobe Immobilon-P Membrane (Millipore, UK) and the acceptor plate was a MultiScreen 96-well Transport Receiver Plate (Millipore, UK). The permeability was measured at 3 different pH levels: pH 5, 6.5 and pH 7.4 in buffer containing 1% Bovine Serum Albumin (Sigma Aldrich, Dorset, UK). A 10 mM DMSO stock solution of test compound was used to prepare the 10 μM PAMPA donor solutions and calibration curves in each of the three buffers.
6 μL of the membrane solution was added to each well of the donor plate. Buffer donor solutions (200 μL) were added to the appropriate wells of the PAMPA donor plate. 300 µL per well of blank PBS (pH 7.4) was added to the PAMPA acceptor plate.
The donor and acceptor plates were then sandwiched together, covered with a lid and incubated at 30° C. in a humid environment for 16 hours. After the incubation period the plates were removed from the incubator and the sandwich was dismantled. […] All sample supernatants were diluted and analysed using a Waters (Milford, MA, US) TQ-S LC-MS/MS system.
Permeability values (cm/s) were calculated using the following equation: […]

Structure (SMILES)	inhibition of LMO2-iDAb LMO2dm3 interaction (in words) [1]	IC50 [1]	other results
CS(=O)(=O)Nc1ccccc1NC(=O)c1cnc(N2CCN(Cc3ccccc3)C2=O)s1 [Abd-L5, 2-(3-benzyl-2-oxoimidazolidin-1-yl)-N-(2-(methylsulfonamido)phenyl)thiazole-5-carboxamide]	unable to inhibit		
COc1ccc(NC(=O)c2cnc(N3CCN(Cc4ccc(Cl)cc4)C3=O)o2)cc1OC [Abd-L8, 2-(3-(4-chlorobenzyl)-2-oxoimidazolidin-1-yl)-N-(3,4-dimethoxyphenyl)oxazole-5-carboxamide]	unable to inhibit		
COc1cccc(CN2CCN(c3nc(C(=O)Nc4ccc(OCc5ccccc5)cc4)co3)C2=O)c1 [Abd-L9, N-(4-(benzyloxy)phenyl)-2-(3-(3-methoxybenzyl)-2-oxoimidazolidin-1-yl)oxazole-4-carboxamide]	most potent inhibitor	1.5 µM	binding to LMO2-ΔLID by waterLOGSY NMR (LMO2-ΔLID): bind and showed binding and Direct binding; binding to LMO2-LID by waterLOGSY NMR (LMO2-LID): not; Caco-2 cell permeability (in words) [2]: low transport; Caco-2 efflux (in words) [2]: low efflux ratio; PAMPA permeability (in words) [3]: best properties
N#Cc1cccc(CN2CCN(c3nc(C(=O)Nc4ccc(-n5cccc5)cc4)co3)C2=O)c1 [Abd-L10, N-(4-(1H-pyrrol-1-yl)phenyl)-2-(3-(3-cyanobenzyl)-2-oxoimidazolidin-1-yl)oxazole-4-carboxamide]		~1 µM and 1 µM	
O=C(NCCc1ccccc1)c1cnc(N2CCN(Cc3ccc(Cl)cc3)C2=O)o1 [Abd-L11, 2-(3-(4-chlorobenzyl)-2-oxoimidazolidin-1-yl)-N-phenethyloxazole-5-carboxamide]	unable to inhibit		
O=C(NCc1ccc(Oc2ccccc2)cc1)c1coc(N2CCN(Cc3ccccc3)C2=O)n1 [Abd-L13, 2-(3-benzyl-2-oxoimidazolidin-1-yl)-N-(4-phenoxybenzyl)oxazole-4-carboxamide]			binding to LMO2-ΔLID by waterLOGSY NMR (LMO2-ΔLID): bind and showed binding and Direct binding; binding to LMO2-LID by waterLOGSY NMR (LMO2-LID): not
COc1cccc(CN2CCN(c3nc(C(=O)Nc4ccc(-n5cccc5)cc4)co3)CC2)c1 [Abd-L15, N-(4-(1H-pyrrol-1-yl)phenyl)-2-(4-(3-methoxybenzyl)piperazin-1-yl)oxazole-4-carboxamide]		16.6 µM	
COc1cccc(CN2CCN(c3nc(C(=O)Nc4ccc(OCc5ccccc5)cc4)co3)CC2)c1 [Abd-L16, N-(4-(benzyloxy)phenyl)-2-(4-(3-methoxybenzyl)piperazin-1-yl)oxazole-4-carboxamide]		1.2 µM	
COc1cccc(CN2CCN(c3nc(C(=O)Nc4ccc(OCc5ccccc5)cc4)cs3)CC2)c1 [Abd-L17, N-(4-(benzyloxy)phenyl)-2-(4-(3-methoxybenzyl)piperazin-1-yl)thiazole-4-carboxamide]		13 µM	
COc1cccc(CN2CCN(c3nc(C(=O)Nc4ccc(-n5cccc5)cc4)cs3)CC2)c1 [Abd-L18, N-(4-(1H-pyrrol-1-yl)phenyl)-2-(4-(3-methoxybenzyl)piperazin-1-yl)thiazole-4-carboxamide]		15.8 µM	
COc1ccc(CN2CCN(c3nc(C(=O)Nc4ccc(-n5cccc5)cc4)co3)CC2)cc1 [Abd-L19, N-(4-(1H-pyrrol-1-yl)phenyl)-2-(4-(4-methoxybenzyl)piperazin-1-yl)oxazole-4-carboxamide]		48.8 µM	
COc1cccc(CN2CCCN(c3nc(C(=O)Nc4ccc(-n5cccc5)cc4)co3)C2=O)c1 [Abd-L24, N-(4-(1H-pyrrol-1-yl)phenyl)-2-(3-(3-methoxybenzyl)-2-oxotetrahydropyrimidin-1(2H)-yl)oxazole-4-carboxamide]	do not affect		
COc1cccc(CN2CCN(c3nccc(C(=O)Nc4ccc(-n5cccc5)cc4)n3)CC2)c1 [Abd-L25, N-(4-(1H-pyrrol-1-yl)phenyl)-2-(4-(3-methoxybenzyl)piperazin-1-yl)pyrimidine-4-carboxamide]	do not affect		
